The record followed here is patent publication US7037495B1, “Antimicrobial compositions” (priority 1999, dated 2006).

Common to all, as to type: cell-based, Escherichia coli
Assay [1] relates to TOP10 E. coli + bcrA. In words: Phage clone activity against resistance of TOP10 E. coli + bcrA to nalidixic acid. The conditions noted are these: for Nalidixic acid MIC: in the presence of phage (neat and diluted 1:10), TOP10 E. coli + bcrA, 24 h at 37° C. The protocol: TOP10 E. coli+bcrA were grown to a concentration of 2×10^4 cfu/ml in RPMI medium (Sigma) containing 100 μg/ml ampicillin (to select for the pBAD-TOPO vector) in the presence of 0.002% L-arabinose, as the inducer of the bcrA gene. 100 μl TOP10 E. coli+bcrA, at a final concentration of 1×10^4 cfu/ml, were dispensed into 96 well microtitre plate (Sigma) in the presence of neat phage and phage diluted 1:10 (see table below). Serial doubling dilutions nalidixic acid was added to each well, with the concentration ranging from 128 to 0.25 μg/ml. A control with just the media was set up. The plates were incubated for 24 h at 37° C. Six phage clones were tested.

In assay [2] the test system is TOP10 E. coli + bcrA. The assay can be described thus: MIC determination by microtitre broth dilution method, TOP10 E. coli + bcrA. The following applies: for Growth of TOP10 E. coli + bcrA: 24 h at 37° C. How it is done:
(§1) MIC Determination by Microtitre Broth Dilution Method
(§2) TOP10 E. coli with or without (O) bcrA were grown to a concentration of 2×10^4 cfu/ml (bcrA+was grown in the presence of 100 μg/ml ampicillin to select for the pBAD-TOPO vector) in RPMI medium (Sigma) in the presence of 0.002% L-arabinose, as the inducer of the bcrA gene. 100 μl TOP10 E. coli±bcrA was dispensed into 96 well microtitre plate (Sigma) to give a final concentration of 1×10^4 cfu/ml. […] The plates were incubated for 24 h at 37° C. and scored by growth or no growth.
For orientation: In broth dilution the organism is exposed to a series of concentrations in liquid medium.

Assay [3] has as its system TOP10 E. coli − bcrA. The assay can be described thus: MIC determination by microtitre broth dilution method, TOP10 E. coli − bcrA. The following applies: 24 h at 37° C. How it is done: as §1, §2
The mark [4] stands for this setting: TOP10 E. coli + bcrA versus − bcrA.

Regarding AIISFGFMAFFGSVV [Peptide 1], in assay [1], the “Nalidixic acid MIC” value is 2 mg/L.

On to SVVIFPLWQTVMGYT [Peptide 2], for which the “Nalidixic acid MIC” value in assay [1] came to 16 mg/L.

For `CN(C)[C@@H]1C(O)=C(C(N)=O)C(=O)[C@@]2(O)C(O)=C3C(=O)c4c(O)cccc4[C@@](C)(O)[C@H]3C[C@@H]12` [Tetracycline], the “Growth of TOP10 E. coli + bcrA” value in assay [2] (antibiotic 0.125 μg/ml), in assay [2] (antibiotic 0.25 μg/ml), in assay [2] (antibiotic 0.5 μg/ml), in assay [2] (antibiotic 1 μg/ml), in assay [2] (antibiotic 2 μg/ml) and in assay [2] (antibiotic 4 μg/ml) was “+” in each case. Also, the “Growth of TOP10 E. coli + bcrA” value in assay [2] (antibiotic 8 μg/ml), in assay [2] (antibiotic 16 μg/ml), in assay [2] (antibiotic 32 μg/ml), in assay [2] (antibiotic 64 μg/ml) and in assay [2] (antibiotic 128 μg/ml) was “−” throughout. For the same molecule, the “Growth of TOP10 E. coli − bcrA” value is “+” in assay [3] (antibiotic 0.125 μg/ml); “+” in assay [3] (antibiotic 0.25 μg/ml); “+” in assay [3] (antibiotic 0.5 μg/ml); “+” in assay [3] (antibiotic 1 μg/ml); “+” in assay [3] (antibiotic 2 μg/ml); “−” in assay [3] (antibiotic 4 μg/ml). Besides, the “Growth of TOP10 E. coli − bcrA” value in assay [3] (antibiotic 8 μg/ml), in assay [3] (antibiotic 16 μg/ml), in assay [3] (antibiotic 32 μg/ml), in assay [3] (antibiotic 64 μg/ml) and in assay [3] (antibiotic 128 μg/ml) was “−” in each case.

Take `CCn1cc(C(=O)O)c(=O)c2ccc(C)nc21` [Nalidixic Acid]: in assay [2] (TOP10 E. coli + bcrA versus − bcrA, doubling dilutions), the “difference in MIC in TOP10 E. coli ± bcrA” value is “three well difference”. The “Growth of TOP10 E. coli + bcrA” value in assay [2] (antibiotic 0.125 μg/ml), in assay [2] (antibiotic 0.25 μg/ml), in assay [2] (antibiotic 0.5 μg/ml), in assay [2] (antibiotic 1 μg/ml), in assay [2] (antibiotic 2 μg/ml) and in assay [2] (antibiotic 4 μg/ml) was “+” in each case. The “Growth of TOP10 E. coli + bcrA” value in assay [2] (antibiotic 8 μg/ml) is given as “+”; in assay [2] (antibiotic 16 μg/ml), “−”; in assay [2] (antibiotic 32 μg/ml), “−”; in assay [2] (antibiotic 64 μg/ml), “−”; in assay [2] (antibiotic 128 μg/ml), “−”. Also, the “Growth of TOP10 E. coli − bcrA” value in assay [3] (antibiotic 0.125 μg/ml) is given as “+”; in assay [3] (antibiotic 0.25 μg/ml), “+”; in assay [3] (antibiotic 0.5 μg/ml), “+”; in assay [3] (antibiotic 1 μg/ml) it was “+”; in assay [3] (antibiotic 2 μg/ml), “+”; in assay [3] (antibiotic 4 μg/ml), “−”. Moreover, the “Growth of TOP10 E. coli − bcrA” value in assay [3] (antibiotic 8 μg/ml), in assay [3] (antibiotic 16 μg/ml), in assay [3] (antibiotic 32 μg/ml), in assay [3] (antibiotic 64 μg/ml) and in assay [3] (antibiotic 128 μg/ml) was “−” throughout. The MIC in assay [1] (Escherichia coli, 24 h, read-out: Nalidixic acid MIC) was determined as 16 mg/L.

For the molecule `O=C(O)c1cn(C2CC2)c2cc(N3CCNCC3)c(F)cc2c1=O` [Ciprofloxacin], in assay [2] (setting [4]), the “resistance conferred by the bcrA gene in TOP10 E. coli” value is “No resistance”. Also, the “Growth of TOP10 E. coli + bcrA” value is “+” in assay [2] (antibiotic 0.125 μg/ml); “−” in assay [2] (antibiotic 0.25 μg/ml); “−” in assay [2] (antibiotic 0.5 μg/ml); “−” in assay [2] (antibiotic 1 μg/ml); “−” in assay [2] (antibiotic 2 μg/ml); “−” in assay [2] (antibiotic 4 μg/ml). Besides, the “Growth of TOP10 E. coli + bcrA” value in assay [2] (antibiotic 8 μg/ml), in assay [2] (antibiotic 16 μg/ml), in assay [2] (antibiotic 32 μg/ml), in assay [2] (antibiotic 64 μg/ml) and in assay [2] (antibiotic 128 μg/ml) was “−” each time. In addition, the “Growth of TOP10 E. coli − bcrA” value in assay [3] (antibiotic 0.125 μg/ml) is given as “+”; in assay [3] (antibiotic 0.25 μg/ml), “−”; in assay [3] (antibiotic 0.5 μg/ml) it was “−”; in assay [3] (antibiotic 1 μg/ml) it was “−”; in assay [3] (antibiotic 2 μg/ml) it was “−”; in assay [3] (antibiotic 4 μg/ml), “−”. For the same molecule, the “Growth of TOP10 E. coli − bcrA” value in assay [3] (antibiotic 8 μg/ml), in assay [3] (antibiotic 16 μg/ml), in assay [3] (antibiotic 32 μg/ml), in assay [3] (antibiotic 64 μg/ml) and in assay [3] (antibiotic 128 μg/ml) was “−” each time.

On to HRLDRMVASFAFHR [Peptide 3], for which the “Nalidixic acid MIC” value in assay [1] was 8 mg/L.

For `N=C(NCCCCCCNC(=N)NC(=N)Nc1ccc(Cl)cc1)NC(=N)Nc1ccc(Cl)cc1` [Chlorohexadine], in assay [2] (setting [4]), the “resistance conferred by the bcrA gene in TOP10 E. coli” value is “No resistance”. The “Growth of TOP10 E. coli + bcrA” value in assay [2] (antibiotic 0.125 μg/ml), in assay [2] (antibiotic 0.25 μg/ml), in assay [2] (antibiotic 0.5 μg/ml), in assay [2] (antibiotic 1 μg/ml), in assay [2] (antibiotic 2 μg/ml) and in assay [2] (antibiotic 4 μg/ml) was “+” throughout. The “Growth of TOP10 E. coli + bcrA” value in assay [2] (antibiotic 8 μg/ml) is on record as “+”; in assay [2] (antibiotic 16 μg/ml) it was “−”; in assay [2] (antibiotic 32 μg/ml), “−”; in assay [2] (antibiotic 64 μg/ml) it was “−”; in assay [2] (antibiotic 128 μg/ml), “−”. Moreover, the “Growth of TOP10 E. coli − bcrA” value in assay [3] (antibiotic 0.125 μg/ml), in assay [3] (antibiotic 0.25 μg/ml), in assay [3] (antibiotic 0.5 μg/ml), in assay [3] (antibiotic 1 μg/ml), in assay [3] (antibiotic 2 μg/ml) and in assay [3] (antibiotic 4 μg/ml) was “+” throughout. Further, the “Growth of TOP10 E. coli − bcrA” value in assay [3] (antibiotic 8 μg/ml) is given as “+”; in assay [3] (antibiotic 16 μg/ml), “−”; in assay [3] (antibiotic 32 μg/ml), “−”; in assay [3] (antibiotic 64 μg/ml), “−”; in assay [3] (antibiotic 128 μg/ml) it was “−”.
